# Data published in patent publication US9370764B2, “Compositions and particles containing cellulosic fibers and stabilized-and/or activated-urease inhibitors, as well as methods of making and using the same” (INTERNATIONAL PAPER COMPANY, priority 2007, dated 2016).
# Test: On-shelf aging of PPDA treated pulp at room conditions
# Assay type: physicochemical
# Settings: pulp treated with 400 ppm PPDA
# Method: Bleached softwood pulps that were treated with 400 ppm PPDA was stored on shelf as dry pulp in ambient conditions for 18 weeks and 20 weeks. The aged pulp samples were then fluffed and tested for ammonia generation by bacteria as in Example 1.
# Aging test was also conducted on-shelf in the bag at room conditions. The result was shown in Table 12, and plotted in FIG. 5 in log scale.
smiles,measurement,setting,value
"NP(N)(=O)Oc1ccccc1 [PPDA, phenylphosphorodiamidate]",PPDA remaining on the pulp (HPLC),stored on shelf as dry pulp in ambient conditions for 18 weeks,trace amount
same,PPDA remaining on the pulp (HPLC),stored on shelf as dry pulp in ambient conditions for 20 weeks,no PPDA remaining
